Read-outs that look alike come from different tables or passages of the source.
Columns and labels:
HIV-1 (BaL) [1] = format: cell-based; details: TZM-bl assay; HIV-1 BaL (R5); 24 hr; luciferase activity
Experimental: The ability of the analogs to inhibit HIV infection was determined with an assay that determines viral infectivity with an LTR-mediated luciferase reporter construct [37]. In brief, TZM-bl reporter cells are HeLa-derived JC53-BL cells that express high levels of CD4, CXCR4, and CCR5. They also contain reporter cassettes for luciferase and β-galactosidase, both driven by the HIV-1 long terminal repeat [38]). 24 hr after these reporter cells were exposed to R5 lab-adapted strains of HIV-1 (BaL) in the presence of peptides, protection was measured as % reduction in luciferase activity (relative light units) compared to cells infected with virus and peptide vehicle alone.

HIV-1 (BaL) [2] = experiment: p24^gag antigen release assay in PM1 cells; format: cell-based; details: MOI = 10^−2, 0.078–5 µM, 37°C/5% CO2, p24 ELISA, day 5 represents peak infection
Experimental: The cells were washed and resuspended in fresh growth media containing vehicle or peptides for 7 days. Supernatants were collected at days 3, 5, and 7 post-infection, and on days 3 and 5 the cells were resuspended in 1 ml of growth medium containing the appropriate concentration of vehicle or peptide. HIV-1 infection was quantified by measuring the amount of p24^gag in the cell supernatants (Perkin Elmer p24 ELISA, Waltham, MA).

[3] = NMR studies of oligomerization (data not shown); format: physicochemical; details: water, DMSO and their mixtures; limited NMR studies (data not shown)
CXCR4 (HIV-1IIIB) = experiment: p24^gag antigen release assay using PBMCs, CXCR4 strain; format: cell-based; details: PBMC based p24^gag antigen release assay
[4] = CD analysis of secondary structure; format: physicochemical; details: for disordered / turns / α-helix / β-sheet: Selcon
Experimental: Peptide was scanned at 20 nm per minute in a 0.01 cm path-length cell at 25°C with a sample interval of 0.2 nm. The peptide concentration was determined by UV absorbance at 280 nm. After baseline correction, spectra were expressed as the Mean Residue Ellipticity [θ]MRE. Quantitative estimates of secondary structural contributions were made with Selcon using the spectral basis set for proteins in the Olis Global Works™ software package (Olis Inc., Bogart, GA).

TZM-bl cells [5] = experiment: Cell viability (CytoTox-Glo) in TZM-bl cells; format: cell-based; details: Figure 8
Experimental: (§1) Cell viability experiments were carried out using CytoTox-Glo™ Assay (Promega Corp., Madison, WI) and cytotoxicity was analyzed using an MTT-based cell proliferation kit (Boehringer Mannheim, Indianapolis, IN) Both tests were performed according to manufacturer's instructions. MTT is 3-(4,5-dimethylthiazol-2-yl)-2,5-diphenyltetrazolium bromide. Experiments utilizing vaginal epithelial cells (VECs) were carried out as previously described.

TZM-bl cells [6] = experiment: MTT reduction in TZM-bl cells; format: cell-based; details: Figure 8
Experimental: as §1

[7] = target: GRFN-1 (self-association); experiment: SPR self-association of GRFN-1; format: binding; details: BIAcore CM5 chip, HBS-EP pH = 7.4, KD±SEM, average from at least 5 independent experiments
gp120LAV = gp120LAV (Human immunodeficiency virus type 1 group M subtype B, UniProt P03377); details: SPR, BIAcore CM5 chip, HBS-EP pH = 7.4; KD±SEM, average from at least 5 independent experiments
Experimental: (§2) Surface plasmon resonance (SPR) studies were performed on a BIAcore 3000 system (BiaCore AB, Piscataway, NJ), using BIAcore CM5 sensor chips and HBS-EP running buffer (pH = 7.4) containing 10 mM HEPES, 150 mM NaCl, 3 mM EDTA, and 0.005% polysorbate 20. Proteins/peptides were immobilized on a CM5 sensor chip using the amine coupling method. The chip was activated by mixing 400 mM N-ethyl-N-(3-dimethylaminopropyl)-carbodiimide hydrochloride and 100 mM N-hydroxysuccinimide. Residual reactive groups on the chip surface were blocked using 1.0 M ethanolamine/HCl (pH = 8.5). The flow cell-1 chamber, which served as a control, lacked immobilized protein but was treated with N-ethyl-N-(3-dimethylaminopropyl)-carbodiimide hydrochloride, N-hydroxysuccinimide, and ethanolamine/HCl. Binding signals were corrected for nonspecific binding by subtracting the flow cell-1 signal. To regenerate chip surfaces, bound ligands were removed with 10 mM HCl. Data were analyzed with BIAevaluation 4.1 software (Biacore, Piscataway, NJ).

gp41 = gp41 (Human immunodeficiency virus type 1 group M subtype B, UniProt P03375); details: SPR, BIAcore CM5 chip, HBS-EP pH = 7.4; KD±SEM, average from at least 5 independent experiments
Experimental: as §2

CCR5 (HIV-1BAL) = experiment: p24^gag antigen release assay using PBMCs, CCR5 strain; format: cell-based; details: PBMC based p24^gag antigen release assay
[8] = format: physicochemical; details: for Molecular weight range: 20 mM NaH2PO4, 20°C, 280 nm; for OD280 lost on centrifugation / weight-average molecular weight: 20 mM NaH2PO4
Experimental: Sedimentation equilibrium was performed at 20°C in a Beckman Optima XL-A analytical ultracentrifuge using absorption optics at 280 nm. Twelve mm path length double sector cells were used for all samples. Samples (OD280 = 0.7 and OD280 = 0.15)) were in 20 mM NaH2PO4. Sedimentation equilibrium profiles were measured at speeds of 3000, 7000, 11000, 24000 and 36000 rpm. The data were fitted with a nonlinear least-squares exponential fit for a single ideal species using the Beckman Origin-based software (Version 3.01 A partial specific volume of 0.739 was estimated from the amino acid composition using 0.9 (the partial specific volume of a leucine residue) for the partial specific volume of cyclohexylalanine and cyclohexylglycine. It was then corrected to 20°C [47].

[9] = system: gp41, gp120BAL and gp120LAV; experiment: SPR binding to viral glycoproteins (gp41, gp120BAL, gp120LAV); parameters: species or system HIV-1
[10] = 0.25 mM in 10 mM phosphate buffer pH = 6.5, 25°C
[11] = 0.5 mM in 10 mM phosphate buffer pH = 6.5, 25°C
[12] = 0.5 mM in HFIP:10 mM phosphate buffer pH = 6.5 (4∶6, v∶v), 25°C
[13] = 0.5 mM in TFE:10 mM phosphate buffer pH = 6.5 (4∶6, v∶v), 25°C

Chain of gp41 (P03375 512-856): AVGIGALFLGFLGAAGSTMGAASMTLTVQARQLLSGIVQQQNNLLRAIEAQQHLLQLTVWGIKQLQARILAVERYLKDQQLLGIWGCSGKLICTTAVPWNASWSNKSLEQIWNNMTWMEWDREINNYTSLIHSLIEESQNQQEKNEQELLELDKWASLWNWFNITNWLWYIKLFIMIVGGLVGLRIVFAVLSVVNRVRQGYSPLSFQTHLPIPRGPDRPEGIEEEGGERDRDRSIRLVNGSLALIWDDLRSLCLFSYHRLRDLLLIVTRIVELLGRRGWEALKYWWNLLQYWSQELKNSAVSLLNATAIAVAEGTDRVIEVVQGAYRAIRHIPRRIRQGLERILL

With “Cha-SC-Chg-R-Chg-RSGSY-Cha-DN-Chg-R-Chg-(D)Cys-CONH2 (disulfide) [GRFN-1]” the EC50 (HIV-1 (BaL) [1]) was 191 ± 11 nM, the EC50 (HIV-1 (BaL) [2]) was 547 ± 66.1 nM and the “oligomerization (in words)” value [3] was “Oligomerization of GRFN-1 in various solvents (water, DMSO and their mixtures) was suggested”. For the same substance, the “antiviral activity (in words)” value (CXCR4 (HIV-1IIIB)) was “maintained their antiviral activity”, the disordered [4, 10] was 30.0% and the turns [4, 10] was 21.0%. It also gave a α-helix [4, 10] of 25.0%, a β-sheet [4, 10] of 24.0% and a disordered [4, 11] of 31.0%. It also gave a turns [4, 11] of 21.0%, a α-helix [4, 11] of 13.0% and a β-sheet [4, 11] of 35.0%. It also gave a disordered [4, 12] of 24.0%, a turns [4, 12] of 16.0% and a α-helix [4, 12] of 52.0%. For the same substance, the β-sheet [4, 12] was 8.0%, the disordered [4, 13] was 30.0% and the turns [4, 13] was 23.0%. The α-helix [4, 13] was 19.0%, the β-sheet [4, 13] was 28.0% and the “secondary structure (in words)” value ([4]; 10 mM phosphate buffer, pH = 6.5, 250 µM) was “almost equal proportions of α-helix, β-sheet, turn and disordered conformations”. The “secondary structure (in words)” value ([4]; 10 mM phosphate buffer, pH = 6.5, 500 µM vs 250 µM) was “β-sheet structure increases at the expense of α-helix”, the “secondary structure (in words)” value ([4]; HFIP:buffer) was “dominant helical conformation” and the “secondary structure (in words)” value ([4]; TFE:buffer) was “mix of α-helix, β-sheet, turns”. The “concentration dependence of conformation” value ([4]; TFE:buffer and HFIP:buffer, 50 to 500 µM (data not shown)) was “not concentration dependent”, the effect on viability (TZM-bl cells [5]) was “no effect on viability” and the “inhibition of cellular dehydrogenase activity (MTT reduction)” value (TZM-bl cells [6]) was “appeared to inhibit cellular dehydrogenase activity (as gauged by MTT reduction) in a dose dependent manner”. The “KD (self-association)” value [7] was 500 ± 130 nM, the Kd (gp120LAV) was 2240 ± 810 nM and the Kd (gp41) was 3000 ± 1310 nM. The “antiviral activity (in words)” value (CCR5 (HIV-1BAL)) was “maintained their antiviral activity”, the Molecular weight range ([8]; 3K rpm (limited data)) was “∼150000 Da” and the Molecular weight range ([8]; 7K rpm) was 68500–84700 Da. For the same substance, the Molecular weight range ([8]; 11K rpm) was 8950–38100 Da, the Molecular weight range ([8]; 24K rpm) was 2541–6200 Da and the Molecular weight range ([8]; 36K rpm) was 2245–2940 Da. For the same substance, the “OD280 lost on centrifugation” value ([8]; 3000 rpm) was “less than 5%”, the weight-average molecular weight ([8]; 7000 rpm, remaining heterogeneous material) was “about 69000” and the “OD280 lost on centrifugation” value ([8]; 7000 rpm) was “Approximately two-thirds”. The weight-average molecular weight ([8]; early scans, after 16 hours, 3000 rpm) was “about 150,000”, the turbidity ([8]; initially dissolved in 20 mM NaH2PO4) was “slightly turbid solution” and the “aggregation state (in words)” value ([8]; sedimentation equilibrium, diluted salt) was “high molecular weight soluble aggregates with some monomer present”. For the same substance, the “binding (in words)” value [9] was “binds gp41, gp120BAL and gp120LAV in a dose dependent manner”.

Reference: PMC3002932 (PLoS ONE, 2010)
